For 20 compounds, T/C results are on record in PubChem BioAssay AID330 (DTP/NCI, 2004).

The test has as its system P388 leukemia ip, CD2F1 mice, survival T/C. Briefly: NCI In Vivo Anticancer Drug Screen. Data for tumor model P388 Leukemia (intraperitoneal) in CD2F1 (CDF1) mice. The settings on record: higher = longer survival. The essentials:
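Mice carrying the transplanted tumor received test compound or vehicle. Survival was recorded in each group, and the value is the treated-group measurement divided by that of the vehicle-treated control group.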

The mark [1] stands for this setting: endpoint: median survival time, dose: 12.5 mg/kg/injection, schedule: Q01DX009 (ip), vehicle: saline sonified.
Setting [2] is: endpoint: median survival time, dose: 50.0 mg/kg/injection, schedule: Q04DX003 (ip), vehicle: saline.
Setting [3] is: endpoint: median survival time, dose: 50.0 mg/kg/injection, schedule: Q01DX005 (ip), vehicle: saline with Tween-80.
Setting [4] is: endpoint: median survival time, dose: 100.0 mg/kg/injection, schedule: Q01DX005 (ip), vehicle: saline with Tween-80.
[5] abbreviates: endpoint: median survival time, dose: 200.0 mg/kg/injection, schedule: Q01DX005 (ip), vehicle: saline with Tween-80.
[6] abbreviates: endpoint: median survival time, dose: 120.0 mg/kg/injection, schedule: Q01DX005 (ip), vehicle: saline with Tween-80.
Setting [7] is: endpoint: median survival time, dose: 240.0 mg/kg/injection, schedule: Q01DX005 (ip), vehicle: saline with Tween-80.

“And” between values parts separate entries of the source, which are not always exact repeats. Equal entries are not always repeated. Inconclusive results and toxic doses are left out.

For the compound `CSc1ccc(NC(=O)ON2C(=O)c3ccccc3C2=O)cc1`, the T/C (endpoint: median survival time, dose: 6.25 mg/kg/injection, schedule: Q01DX009 (ip), vehicle: saline with Tween-80) was 119 % of control; the T/C (endpoint: median survival time, dose: 12.5 mg/kg/injection, schedule: Q01DX009 (ip), vehicle: saline with Tween-80) was 110 % of control; the T/C (endpoint: median survival time, dose: 25.0 mg/kg/injection, schedule: Q01DX009 (ip), vehicle: saline with Tween-80) is 112 % of control; the T/C (endpoint: median survival time, dose: 50.0 mg/kg/injection, schedule: Q01DX009 (ip), vehicle: saline with Tween-80) was 119 % of control.
For the compound `NC(Cc1ccc(O)cc1)C(=O)N/N=C/c1ccccc1Cl` (centres undefined), the T/C was 100 % of control (endpoint: median survival time, dose: 50.0 mg/kg/injection, schedule: Q01DX005 (ip), vehicle: Klucel (hydroxypropylcellulose) (HPC)) and 106 % of control (endpoint: median survival time, dose: 100.0 mg/kg/injection, schedule: Q01DX005 (ip), vehicle: Klucel (hydroxypropylcellulose) (HPC)).
Consider `O=S(=O)(O)c1ccc(-c2ccc(S(=O)(=O)O)cc2)cc1` (tested in a mixture with another compound), for which the T/C reads like this: (endpoint: mean survival time, dose: 20.0 mg/kg/injection, schedule: Q01DX009 (ip), vehicle: saline) 253 % of control; (endpoint: mean survival time, dose: 40.0 mg/kg/injection, schedule: Q01DX009 (ip), vehicle: saline) 232 % of control; under setting [1], 154 % of control; (endpoint: median survival time, dose: 20.0 mg/kg/injection, schedule: Q01DX009 (ip), vehicle: saline) 231 % of control; (endpoint: median survival time, dose: 25.0 mg/kg/injection, schedule: Q01DX009 (ip), vehicle: saline sonified) 150 % of control; (endpoint: median survival time, dose: 33.0 mg/kg/injection, schedule: Q04DX003 (ip), vehicle: saline) 165 % of control. The T/C reads like this: (endpoint: median survival time, dose: 40.0 mg/kg/injection, schedule: Q01DX009 (ip), vehicle: saline) 272 % of control; (endpoint: median survival time, dose: 50.0 mg/kg/injection, schedule: Q01DX009 (ip), vehicle: saline sonified) 272 % of control; (endpoint: median survival time, dose: 50.0 mg/kg/injection, schedule: Q04DX003 (ip), vehicle: saline sonified) 181 % of control; under setting [2], 169 % of control; (endpoint: median survival time, dose: 75.0 mg/kg/injection, schedule: Q04DX003 (ip), vehicle: saline) 221 % of control.
In the case of `O=C1Nc2ccc3cn[nH]c3c2C1=O`, the T/C runs as follows: under setting [3], 98 % of control; under setting [4], 101 % of control; under setting [5], 105 % of control.
With `O=C1c2ccccc2C(=O)c2c(NCCSCCO)ccc(NCCSCCO)c21`, the T/C is, setting by setting: (endpoint: median survival time, dose: 16.0 mg/kg/injection, schedule: Q01DX009 (ip), vehicle: Klucel (hydroxypropylcellulose) (HPC)) 92 % of control; (endpoint: median survival time, dose: 32.0 mg/kg/injection, schedule: Q01DX009 (ip), vehicle: Klucel (hydroxypropylcellulose) (HPC)) 96 % of control; (endpoint: median survival time, dose: 64.0 mg/kg/injection, schedule: Q01DX009 (ip), vehicle: Klucel (hydroxypropylcellulose) (HPC)) 89 % of control; (endpoint: median survival time, dose: 128.0 mg/kg/injection, schedule: Q01DX009 (ip), vehicle: Klucel (hydroxypropylcellulose) (HPC)) 86 % of control.
With `O=C(O)/C=C/S(=O)(=O)c1ccc(Cl)cc1`, the T/C was 89 % of control (endpoint: median survival time, dose: 5.0 mg/kg/injection, schedule: Q01DX009 (ip), vehicle: Klucel (hydroxypropylcellulose) (HPC)); 98 % of control (endpoint: median survival time, dose: 10.0 mg/kg/injection, schedule: Q01DX009 (ip), vehicle: Klucel (hydroxypropylcellulose) (HPC)); 96 % of control (endpoint: median survival time, dose: 20.0 mg/kg/injection, schedule: Q01DX009 (ip), vehicle: Klucel (hydroxypropylcellulose) (HPC)); 99 % of control (endpoint: median survival time, dose: 40.0 mg/kg/injection, schedule: Q01DX009 (ip), vehicle: Klucel (hydroxypropylcellulose) (HPC)).
Consider `NC(CCC(=O)O)C(=O)NC(Cc1c[nH]c2ccccc12)C(=O)O` (centres undefined), for which the T/C was 103 % of control under setting [3], 96 % of control under setting [4] and 105 % of control under setting [5].
In the case of `COc1ccc(CS(=O)(=O)c2cnc(=O)[nH]c2N)cc1OC`, the T/C (endpoint: median survival time, dose: 100.0 mg/kg/injection, schedule: Q04DX002 (ip), vehicle: saline) is 93 % of control; the T/C (endpoint: median survival time, dose: 200.0 mg/kg/injection, schedule: Q04DX002 (ip), vehicle: saline) was 101 % of control; the T/C (endpoint: median survival time, dose: 400.0 mg/kg/injection, schedule: Q04DX002 (ip), vehicle: saline) was 93 % of control.
As to `CCCCCCCCCCCCCCCC(=O)N(CCCN(C)C)C1CCC(N(CCCN(C)C)C(=O)CCCCCCCCCCCCCCC)CC1` (centres undefined), the T/C reads like this: (endpoint: median survival time, dose: 3.13 mg/kg/injection, schedule: Q01DX009 (ip), vehicle: saline sonified) 90 % of control; (endpoint: median survival time, dose: 6.25 mg/kg/injection, schedule: Q01DX009 (ip), vehicle: saline sonified) 90 % of control; under setting [1], 90 % of control.
For `CN=C1NC(=O)C(c2ccccc2)S1` (centres undefined), the T/C under setting [3] is 99 % of control and the T/C under setting [4] was 99 % of control.
`COC(=O)c1ccnc2nc[nH]c12`: the T/C was 103 % of control (endpoint: median survival time, dose: 100.0 mg/kg/injection, schedule: Q01DX001 (ip), vehicle: water); 104 % of control (endpoint: median survival time, dose: 200.0 mg/kg/injection, schedule: Q01DX001 (ip), vehicle: water); 104 % of control (endpoint: median survival time, dose: 400.0 mg/kg/injection, schedule: Q01DX001 (ip), vehicle: water).
As for `CCOc1c(-c2ccccc2)c(=O)n2c3ccccc3n(CC)c2c1C#N`, the T/C reads like this: (endpoint: median survival time, dose: 7.5 mg/kg/injection, schedule: Q01DX005 (ip), vehicle: saline with Tween-80) 86 % of control; (endpoint: median survival time, dose: 15.0 mg/kg/injection, schedule: Q01DX005 (ip), vehicle: saline with Tween-80) 87 % of control; (endpoint: median survival time, dose: 30.0 mg/kg/injection, schedule: Q01DX005 (ip), vehicle: saline with Tween-80) 93 % of control; under setting [6], 88 % of control; under setting [7], 98 % of control and 100 % of control.
Regarding `COc1cc2cc(c1Cl)N1CC(O)C(C)(O)C(=O)NC(C)C(=O)OC(CC1=O)C1(C)OC1C(C)C1CC(O)(NC(=O)O1)C(OC)/C=C\C=C(\C)C2OC` (centres undefined), the T/C is, setting by setting: (endpoint: median survival time, dose: 7.75 micrograms/kg/injection, schedule: Q01DX009 (ip), vehicle: none) 153 % of control; (endpoint: median survival time, dose: 15.5 micrograms/kg/injection, schedule: Q01DX009 (ip), vehicle: none) 159 % of control.
Regarding `OCC1C=Cc2ccccc21` (centres undefined), the T/C was 109 % of control (endpoint: median survival time, dose: 50.0 mg/kg/injection, schedule: Q01DX009 (ip), vehicle: saline); 107 % of control (endpoint: median survival time, dose: 100.0 mg/kg/injection, schedule: Q01DX009 (ip), vehicle: saline); 114 % of control (endpoint: median survival time, dose: 200.0 mg/kg/injection, schedule: Q01DX009 (ip), vehicle: saline).
In the case of `CN1CC2(CO)C(c3ccccc3)OC(c3ccccc3)C(CO)(C1)C2O` (centres undefined), the T/C is, setting by setting: (endpoint: median survival time, dose: 60.0 mg/kg/injection, schedule: Q01DX005 (ip), vehicle: saline with Tween-80) 104 % of control and 100 % of control; under setting [6], 107 % of control and 100 % of control; under setting [7], 96 % of control.
In the case of `COc1cc2c(cc1NC(=O)N(CCCl)N=O)-c1ccccc1C2`, the T/C (endpoint: median survival time, dose: 350.0 mg/kg/injection, schedule: Q04DX003 (ip), vehicle: Klucel (hydroxypropylcellulose) (HPC)) is 163 % of control.
On to `CN(C)[C@@H]1C(=O)C(C(=O)NCNc2nc3n[nH]nc3c(=O)[nH]2)=C(O)[C@@]2(O)C(=O)C3=C(O)c4c(O)cccc4[C@@](C)(O)[C@H]3C[C@@H]12`, for which the T/C by setting is: under setting [2], 102 % of control; (endpoint: median survival time, dose: 100.0 mg/kg/injection, schedule: Q04DX003 (ip), vehicle: saline) 100 % of control; (endpoint: median survival time, dose: 200.0 mg/kg/injection, schedule: Q04DX003 (ip), vehicle: saline) 107 % of control; (endpoint: median survival time, dose: 400.0 mg/kg/injection, schedule: Q04DX003 (ip), vehicle: saline) 111 % of control.
Take `Cn1c2ccccc2c(=Nc2ccc(S(=O)(=O)N=C(N)N)cc2)c2ccccc21`: the T/C was 106 % of control under setting [3] and 96 % of control under setting [4].
For `COc1ccc2c(c1OC)C(=O)N1CCc3cc4c(cc3C1C2C(=O)O)OCO4` (centres undefined), the T/C (endpoint: median survival time, dose: 50.0 mg/kg/injection, schedule: Q04DX003 (ip), vehicle: distilled water + Tween-80) was 100 % of control; the T/C (endpoint: median survival time, dose: 100.0 mg/kg/injection, schedule: Q04DX003 (ip), vehicle: distilled water + Tween-80) was 109 % of control; the T/C (endpoint: median survival time, dose: 200.0 mg/kg/injection, schedule: Q04DX003 (ip), vehicle: distilled water + Tween-80) is 100 % of control; the T/C (endpoint: median survival time, dose: 400.0 mg/kg/injection, schedule: Q04DX003 (ip), vehicle: distilled water + Tween-80) is 104 % of control.
As for `CN1C(=O)C(=O)N2c3ccc(Cl)cc3C3(c4ccccc4)N=CC12O3` (centres undefined), the T/C is, setting by setting: (endpoint: median survival time, dose: 100.0 mg/kg/injection, schedule: Q04DX003 (ip), vehicle: Klucel (hydroxypropylcellulose) (HPC)) 109 % of control; (endpoint: median survival time, dose: 200.0 mg/kg/injection, schedule: Q04DX003 (ip), vehicle: Klucel (hydroxypropylcellulose) (HPC)) 112 % of control; (endpoint: median survival time, dose: 400.0 mg/kg/injection, schedule: Q04DX003 (ip), vehicle: Klucel (hydroxypropylcellulose) (HPC)) 113 % of control.
